Source: patent publication US12291508B2, “Hydrazide containing nuclear transport modulators and uses thereof” (Karyopharm Therapeutics Inc., priority 2011, dated 2025)
Where a name gives a salt, the structure may show the parent alone.

Legend:
DU4475 = assay: Cell proliferation assay, DU4475; assay type: cell-based; settings: Homo sapiens, DU-4475; DU4475, type Lu, 72 h
Procedure: (§1) The cells were seeded at 5×10^3 to 1.5×10^4 cells (depending on cell type) in each well of a 96-well plate in 100 μL of fresh culture medium and adherent cells were allowed to attach overnight. The stock solutions of the compounds were diluted in cell culture medium to obtain eight concentrations of each drug, ranging from 1 nM to 30 μM and DMSO at less than 1% v/v was used as a negative control. The resulting drug solutions were transferred onto the cells. After 72 h of treatment, 20 μl of CellTiter 96® AQueous reagent was added into each well of the 96-well assay plates and the plate was incubated at 37° C. for 1-4 hours in a humidified, 5% CO2 atmosphere. Then the absorbance of each well was recorded at 490 nm using a 96-well plate reader. In most cases, the assay was performed in triplicate and the results were presented as half maximal inhibitory concentration (IC50).

MCF12A = assay: Cell proliferation assay, MCF12A; assay type: cell-based; settings: Homo sapiens, MCF-12A, type BaB, 72 h
Procedure: as §1

MCF10A = assay: Cell proliferation assay, MCF10A; assay type: cell-based; settings: Homo sapiens, MCF-10A, type BaB, 72 h
Procedure: as §1

HCC-1143 = assay: Cell proliferation assay, HCC-1143; assay type: cell-based; settings: Homo sapiens, HCC1143; HCC-1143, type BaA, 72 h
Procedure: as §1

HCC-1569 = assay: Cell proliferation assay, HCC-1569; assay type: cell-based; settings: Homo sapiens, HCC1569; HCC-1569, type BaA, 72 h
Procedure: as §1

BT-20 = assay: Cell proliferation assay, BT-20; assay type: cell-based; settings: Homo sapiens; BT-20, type BaA, 72 h
Procedure: as §1

HCC-202 = assay: Cell proliferation assay, HCC-202; assay type: cell-based; settings: HCC202; HCC-202, type Lu/HER+, 72 h
Procedure: as §1

ZR7530 = assay: Cell proliferation assay, ZR7530; assay type: cell-based; settings: Homo sapiens, ZR-75-30; ZR7530, type Lu/HER+, 72 h
Procedure: as §1

DU4475 luminal BC cells = assay: Apoptosis marker immunoblot, DU4475; assay type: cell-based; settings: DU4475, 0 to 10 μM, 24 hours
Procedure: (§2) MDA-MB-468 TNBC, DU4475 and HS578T TNBC cells were exposed to concentrations of Compound 1-3 ranging from 0 to 10 μM for 24 hours. After 24 hours, whole protein cell extracts were run on immunoblots and were exposed to antibodies against the proteins indicated in FIGS. 2A-2C.

HS578T TNBC cells = assay: Apoptosis marker immunoblot, HS578T; assay type: cell-based; settings: 0 to 10 μM, 24 hours
Procedure: as §2

BT-20 TNBC Basal B cells = assay: Nuclear localization of FOXO3a and IκB, BT-20; assay type: cell-based; settings: BT-20, 1 μM, 24 hours
Procedure: MDA-MB-468 TNBC Basal A and BT-20 TNBC Basal B cells were exposed to DMSO or 1 μM Compound 1-3 for 24 hours and then stained for FOXO3a or IκB with or without DAPI nuclear stain. The stained cells were examined for nuclear localization.

MDA-MB-468 cells = assay: Anti-apoptosis and cell cycle proteins immunoblot, MDA-MB-468; assay type: cell-based; settings: MDA-MB-468, increasing concentrations, 24 hours
Zucker rats = assay type: in vivo; settings: orally administered at 0.625, 1.25 and 2.5 mg/kg
Procedure: For novel object recognition test, Zucker rats were placed into a test chamber (dimension 26″×18″×18″; L×W×H). Food and water was not be permitted during the test. The test had 3 phases: a) Familiarisation phase: Rats were singly placed in test chamber and allowed to freely explore for 60 min. The distance travelled by the animal during this phase was recorded using tracking software (AnyMaze system). The purpose of this phase was to familiarise the animals to the test apparatus. […] The distance travelled by the animal during this sample phase was automatically recorded, as well as the time spent by the animal interacting with the novel objects, using a tracking software system and visual observation. […] The distance travelled by the animal during the test phase was automatically recorded, as well as the time spent by the animal interacting with the novel and familiar objects, using a tracking software system and visual observation. Object interaction scores during both the sample and test phase were independently recorded by 2 observers. The final score represents the difference score between each reading. […]

[1] = system: obese (fa/fa) Zucker rats; assay type: in vivo
Procedure: Male Zucker (fa/fa) rats and male Zucker lean rats (both from Charles River) at 10 weeks of age—a timepoint at which the Zucker fa/fa rats should show elevated food intake, body mass and elevated plasma lipid profile relative to their “lean” counterparts were singly housed in plastic bottomed cages and were given 14 days of habituation. During this period, animal body weight, food and water intakes were recorded daily. All animals were given ad-lib access to standard lab chow and water throughout the study. Once the 14 day baseline intake data were collected, the Zucker obese rats were assigned into treatment groups based on equivalent baseline data, i.e. all Zucker obese rats had equivalent daily food/water intakes and body weights. During this phase the rats also received two vehicle administrations as familiarisation to the dosing procedure. Immediately after the baseline phase, the treatment phase commenced. Test article and vehicle were administered at approximately 1 h prior to onset of the dark cycle. Dose scheduling varied according to group: 5× weekly dosing was Monday-Friday The study design was the following: Group A=Zucker lean male rats, vehicle treatment 5× week, oral, n=6, Group B=Zucker obese male rats, vehicle treatment 5× week, oral, n=6, Group C=Zucker obese male rats, I-4 2.5 mg/kg 5× week, oral, n=6.
Daily body weight, food and water intake were measured at approximately the same time of the day. At day −1 and day 7 of treatment phase.

SMILES	IC50 (DU4475) [nM]	IC50 (MCF12A) [nM]	IC50 (MCF10A) [nM]	IC50 (HCC-1143) [nM]	IC50 (HCC-1569) [nM]	IC50 (BT-20) [nM]	IC50 (HCC-202) [nM]	IC50 (ZR7530) [nM]	apoptosis (PARP, caspase 3, cleaved PARP, cleaved caspase 3) (DU4475 luminal BC cells)	apoptosis (cleaved PARP, cleaved caspase 3) (HS578T TNBC cells)	localization of FOXO3a and IκB (BT-20 TNBC Basal B cells)	MCL-1 protein level (MDA-MB-468 cells)	novel object recognition (object preference) (Zucker rats)	mean and cumulative food intake ([1]; 2.5 mg/kg 5× weekly, oral, obese (fa/fa) Zucker rats)	body weight gain ([1]; 2.5 mg/kg 5× weekly, oral, compared to Zucker fa/fa controls)	body weight gain after washout ([1]; 2 day washout phase, compared to Zucker fa/fa controls)
O=C(/C=C\n1cnc(-c2cc(C(F)(F)F)cc(C(F)(F)F)c2)n1)NNc1cnccn1 [Compound I-3, (Z)-3-(3-(3,5-bis(trifluoromethyl)phenyl)-1H-1,2,4-triazol-1-yl)-N′-(pyrazin-2-yl)acrylohydrazide]	13	150	180	600	960	1500	5200	19000	induces apoptosis	only a negligible increase in cleaved PARP and cleaved caspase 3	both FOXO3a and IκB were localized in the cell nucleus	a reduction in MCL-1 is observed				
O=C(/C=C\n1cnc(-c2cc(C(F)(F)F)cc(C(F)(F)F)c2)n1)NNc1ccccn1 [Compound I-4, (Z)-3-(3-(3,5-bis(trifluoromethyl)phenyl)-1H-1,2,4-triazol-1-yl)-N′-(pyridin-2-yl)acrylohydrazide hydrochloride]													induced trends of improved novel object recognition	reduced mean and cumulative food intake	significantly reduced weight gain	body weight gain still reduced
